Laboratory results: article PMC11524583, “Neurons enhance blood–brain barrier function via upregulating claudin-5 and VE-cadherin expression due to glial cell line-derived neurotrophic factor secretion” (eLife, 2024)
Where two headings read alike, the source gives them in different places. Marks after values point to notes of the source that are not given here.

Key:
claudin-5 = assay: Western blot of claudin-5 expression in hCMEC/D3 cells; format: cell-based, Homo sapiens; settings: for GDNF-induced claudin-5 expression: 200 pg/ml GDNF, 3 μM SPP-86, 5 μM PP2, 3 μM LY294002, 2 μM U0126, 5 μM SP600125, 2 μM SB203580; for GDNF-induced claudin-5 expression / US-CM-induced claudin-5 expression: anti-GDNF antibody 0.25, 0.5, 1.0 μg/ml; for US-CM-induced claudin-5 expression: 3 μM SPP-86, 5 μM PP2, 3 μM LY294002, 2 μM U0126
Procedure: (§1) Whole-cell and tissue lysates, nucleoprotein, and cytoplasmic protein were prepared using RIPA Lysis Buffer (Beyotime, Shanghai, China) as the described method ([Wu et al., 2021]). Proteins were separated through sodium dodecyl sulfate–polyacrylamide gel electrophoresis and transferred onto nitrocellulose or polyvinylidene difluoride membranes. The membranes were blocked with 5% skim milk and incubated with corresponding primary antibodies at 4°C overnight. After being washed with Tris-buffered saline Tween buffer, the membranes were incubated with secondary antibodies (Cell Signaling Technology, MA, USA) at 1:3000 dilution: Anti-mouse IgG, HRP-linked Antibody (#7076), Anti-rabbit IgG, HRP-linked Antibody (#7074). Protein levels were visualized using a highly sensitive ECL western blotting substrate and a gel imaging system (Tanon Science & Technology, Shanghai, China).
(§2) CM of U251 cells (U-CM), SH-SY5Y cells (S-CM), or co-culture of U251 and SH-SY5Y cells (US-CM) was prepared. U251 cells were seeded at the top of the insert membrane and suspended on 6-well plates seeded with differentiated SH-SY5Y cells to co-culture U251 cells with SH-SY5Y cells. The medium was collected every 24 hr. The CMs were subsequently used for hCMEC/D3 cell culture after filtrating with 0.2 μm filters for 144 hr. The levels of GDNF, bFGF, IGF-1, and TGF-β in CMs were measured using corresponding ELISA kits according to the manufacturers’ instructions.
(§3) Exogenous and endogenous GDNF in the medium was neutralized with anti-GDNF antibody (#AF-212-NA, R&D system, Minneapolis, MN, USA). 0.25, 0.5, and 1.0 μg/ml anti-GDNF antibody was added into the US-CM or medium containing 200 pg/ml GDNF, and then the medium was preincubated at 4°C for 1 hr. The hCMEC/D3 cells were incubated with 200 pg/ml GDNF or US-CM containing anti-GDNF antibody or not for 6 days, and then cell lysate was collected for western blot. The medium was replaced every 24 hr.
(§4) Here, hCMEC/D3 cells were plated in the plates or culture dishes at 6 × 10^4 cells/cm^2 and transfected with 10 nM of negative control or human FOXO1, ETS1, and CDH5 siRNA (Tsingke Biotechnology, Beijing, China) for 12 hr using Lipofectamine 3000 (Invitrogen, Carlsbad, CA, USA) reagent according to the manufacturer’s instructions. Cells were then incubated with a medium containing GDNF for 72 hr.
(§5) The plasmids encoding FOXO1 (EX-Z7404-M02) were constructed by GeneCopoeia (Rockville, MD, USA). The hCMEC/D3 cells were plated in plates or dishes at 6 × 10^4 cells/cm^2. They were subsequently transfected with 1 µg of negative control or plasmids encoding FOXO1 6 hr using Lipofectamine 3000 reagent according to the manufacturer’s instructions. Transfected cells were then incubated with the medium containing GDNF for 72 hr.

VE-cadherin = assay: Western blot of VE-cadherin expression in hCMEC/D3 cells; format: cell-based, Homo sapiens; settings: for GDNF-induced VE-cadherin expression / US-CM-induced VE-cadherin expression: hCMEC/D3 cells, anti-GDNF antibody 0.25, 0.5, 1.0 μg/ml; for GDNF-induced VE-cadherin expression: 200 pg/ml GDNF, 3 μM SPP-86, 5 μM PP2, 3 μM LY294002, 2 μM U0126, 5 μM SP600125, 2 μM SB203580; for US-CM-induced VE-cadherin expression: 3 μM SPP-86, 5 μM PP2, 3 μM LY294002, 2 μM U0126
Procedure: as §1, §2, §3, §4

hCMEC/D3 cells = assay: EdU incorporation assay; format: cell-based, Homo sapiens; settings: for EdU incorporation, EdU + fraction / EdU incorporation, EdU − fraction: 6 days
Procedure: The cells were incubated with medium containing 10 μM Edu for 2 hr. […] The EdU incorporation assay was measured using the BeyoClick EdU Cell Proliferation Kit (Beyotime Biotechnology, Shanghai, China) according to the manufacturer’s instructions. The samples were determined on the FACSCelesta flow cytometer (Becton, Dickins on and Company, USA), and data were analyzed by Flowjo 10.4 software.

p-ERK/ERK = assay: Western blot of p-ERK/ERK in hCMEC/D3 cells; format: cell-based, Homo sapiens; settings: hCMEC/D3 cells, US-CM; 2 μM U0126 or anti-GDNF antibody
Procedure: as §1, §3

ETS1 = assay: Western blot of total and nuclear ETS1 in hCMEC/D3 cells; format: cell-based, Homo sapiens; settings: hCMEC/D3 cells, 200 pg/ml GDNF; LY294002 or U0126
Procedure: as §1, §4

p-AKT/AKT = assay: Western blot of p-AKT/AKT in hCMEC/D3 cells; format: cell-based, Homo sapiens; settings: hCMEC/D3 cells, US-CM; 3 μM LY294002 or anti-GDNF antibody
Procedure: as §1, §3

FOXO1 = assay: Western blot of FOXO1 (p-FOXO1/FOXO1, total, cytoplasmic, nuclear) in hCMEC/D3 cells; format: cell-based, Homo sapiens; settings: hCMEC/D3 cells; LY294002 or U0126
Procedure: as §1, §4, §5

[1] = tested on: hCMEC/D3 mono-culture BBB model; settings: human; for PS: 30 min
[2] = tested on: triple co-culture BBB model (hCMEC/D3, U251 and SH-SY5Y cells); settings: human, 30 min
in vitro [3] = settings: human, Papp, Mono
in vitro [4] = settings: human
[5] = unbound fraction in brain, cited from earlier work
[6] = in situ brain perfusion in rodents; published permeability multiplied by VSA 150 cm^2/g; ref Summerfield et al., 2007; cited from earlier work
[7] = hCMEC/D3 cells incubated with conditioned medium or neurotrophic factor vs normal medium

Molecule	GDNF-induced claudin-5 expression (claudin-5; hCMEC/D3 cells)	US-CM-induced claudin-5 expression (claudin-5; hCMEC/D3 cells)	GDNF-induced VE-cadherin expression (VE-cadherin)	US-CM-induced VE-cadherin expression (VE-cadherin)	GDNF-induced nuclear ETS1 expression (ETS1)	GDNF-induced total ETS1 expression (ETS1)	PSPre, Mono [1]	PS [1]	PS [2]	Papp A→B at 30 min (in vitro [3])	Papp A→B at 30 min (in vitro [4]; Papp, Triple)	PSObs [6]	also measured
bFGF: basic fibroblast growth factor, recombinant protein	–	–	–	–	–	–	–	–	–	–	–	–	claudin-5 expression (claudin-5; [7]): without affecting; VE-cadherin expression (VE-cadherin; [7]): without affecting; EdU incorporation, EdU + fraction (hCMEC/D3 cells; bFGF 6 ng/mL): 21.1; EdU incorporation, EdU − fraction (hCMEC/D3 cells; bFGF 6 ng/mL): 78.9; EdU incorporation, EdU + fraction (hCMEC/D3 cells; bFGF 20 ng/mL): 28.3; EdU incorporation, EdU − fraction (hCMEC/D3 cells; bFGF 20 ng/mL): 71.7; EdU incorporation, EdU + fraction (hCMEC/D3 cells; bFGF 60 ng/mL): 31.0; EdU incorporation, EdU − fraction (hCMEC/D3 cells; bFGF 60 ng/mL): 69.0; cell proliferation (hCMEC/D3 cells; bFGF (6, 20, and 60 ng/ml) for 6 days, EdU incorporation and cell viability): increased cell proliferation
N#CC(=C(/N)Sc1ccccc1N)/C(C#N)=C(/N)Sc1ccccc1N [U0126, reference compound]	significantly suppressed	markedly reversed	significantly suppressed	markedly reversed	markedly attenuated	markedly attenuated	–	–	–	–	–	–	US-CM-induced p-ERK (p-ERK/ERK): markedly reversed
O=c1cc(N2CCOCC2)oc2c(-c3ccccc3)cccc12 [LY294002, reference compound]	significantly suppressed	markedly reversed	significantly suppressed	markedly reversed	markedly attenuated	markedly attenuated	–	–	–	–	–	–	upregulation of claudin-5 expression induced by FOXO1 siRNA and GDNF (claudin-5; hCMEC/D3 cells, LY294002): reversed; US-CM-induced p-AKT (p-AKT/AKT): markedly reversed; GDNF-induced alterations in total p-FOXO1, cytoplasmic p-FOXO1, cytoplasmic FOXO1, and nuclear FOXO1 (FOXO1): significantly reversed
CN1CCN2c3ncccc3Cc3ccccc3C2C1 (stereo not shown) [Mirtazapine]	–	–	–	–	–	–	2637.00 µL/min/g	2637.00 µL/min/g	2009.25 µL/min/g	23.4 ± 0.44 ×10⁻⁶ cm/s	17.9 ± 0.21 ×10⁻⁶ cm/s	1912.50^† μl/min/g	fu, brain ([5]; ref Summerfield et al., 2007): 0.08^†
NC12CC3CC(CC(C3)C1)C2 [Amantadine]	–	–	–	–	–	–	310.22 µL/min/g	310.22 µL/min/g	165.23 µL/min/g	6.84 ± 0.95 ×10⁻⁶ cm/s	3.64 ± 0.26 ×10⁻⁶ cm/s	116.10^† μl/min/g	Papp A→B at 30 min (in vitro [4]; Papp (individual replicate)): 3.04 ×10⁻⁶ cm/s; fu, brain ([5]; ref Esaki et al., 2019): 0.1985^*
